From the Kinase Knowledgebase extract (Sharma et al. 2016)

What follows are compounds tested against MAPK14 (UniProt Q16539) (assay: MAPK14 Binding Inhibition).
Sequence of MAPK14 (Q16539 whole entry, looked up): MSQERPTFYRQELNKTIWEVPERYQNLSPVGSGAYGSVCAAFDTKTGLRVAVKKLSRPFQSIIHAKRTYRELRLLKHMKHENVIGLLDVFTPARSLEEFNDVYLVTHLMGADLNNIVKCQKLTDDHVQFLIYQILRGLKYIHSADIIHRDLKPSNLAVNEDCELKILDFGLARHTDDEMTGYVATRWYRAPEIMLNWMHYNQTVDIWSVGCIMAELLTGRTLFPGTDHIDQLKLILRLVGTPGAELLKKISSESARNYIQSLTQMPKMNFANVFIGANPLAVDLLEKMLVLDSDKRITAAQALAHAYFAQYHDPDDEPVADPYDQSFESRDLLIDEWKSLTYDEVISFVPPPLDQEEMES

Q: With CN1CCC(n2cnc(-c3ccc(F)cc3)c2-c2ccnc(NC3CCSCC3)n2)CC1 as the compound, how does the inhibition read?
A: Its inhibition is under 50 µM.

Q: How did the inhibition turn out when Fc1ccc(-c2ncn(C3CCNCC3)c2-c2ccnc(Nc3cccc(Br)c3)n2)cc1 was run?
A: Its inhibition is under 50 µM.

Q: With CN1CCC(n2cnc(-c3ccc(F)cc3)c2-c2ccnc(NC3CC(C)(C)NC(C)(C)C3)n2)CC1 as the compound, how does the inhibition read?
A: The inhibition was under 50 µM.

Q: Which inhibition does the source give for CN1CCC(n2cnc(-c3ccc(F)cc3)c2-c2ccnc(NC3CCNCC3)n2)CC1 here?
A: Its inhibition is under 50 µM.

Q: How did the inhibition turn out when CCOCCCNc1nccc(-c2c(-c3ccc(F)cc3)ncn2C2CCNCC2)n1 was run?
A: The inhibition was under 50 µM.

Q: For CC1(C)CC(n2cnc(-c3ccc(F)cc3)c2-c2ccnc(Nc3ccccc3)n2)CC(C)(C)N1, which inhibition is on record?
A: Its inhibition is under 50 µM.

Q: How did the inhibition turn out when CN1CCC(n2cnc(-c3ccc(F)cc3)c2-c2ccnc(NCc3cccc4ccccc34)n2)CC1 was run?
A: The inhibition was under 50 µM.

Q: How did the inhibition turn out when CN1CCC(n2cnc(-c3ccc(F)cc3)c2-c2ccnc(NCc3cccc(Cl)c3)n2)CC1 was run?
A: The inhibition was under 50 µM.

Q: For Fc1ccc(-c2ncn(C3CCNCC3)c2-c2ccnc(Nc3ccccc3)n2)cc1, which inhibition is on record?
A: Its inhibition is under 50 µM.

Q: How did the inhibition turn out when O[C@H]1CC[C@H](n2cnc(-c3ccc(F)cc3)c2-c2ccnc(Nc3ccccc3)n2)CC1 was run?
A: The inhibition was under 50 µM.

Q: For CCOC(=O)N1CCC(Nc2nccc(-c3c(-c4ccc(F)cc4)ncn3C3CCN(C)CC3)n2)CC1, which inhibition is on record?
A: The inhibition was under 50 µM.

Q: For CN1CCC(n2cnc(-c3ccc(F)cc3)c2-c2ccnc(NCCc3c[nH]c4ccc(Cl)cc34)n2)CC1, which inhibition is on record?
A: Its inhibition is under 50 µM.

Q: For NCCNc1nccc(-c2c(-c3ccc(F)cc3)ncn2C2CCNCC2)n1, which inhibition is on record?
A: The inhibition was under 50 µM.

Q: How did the inhibition turn out when CN1CCC(n2cnc(-c3ccc(F)cc3)c2-c2ccnc(NCCO)n2)CC1 was run?
A: The inhibition was under 50 µM.

Q: CN1CCC(n2cnc(-c3ccc(F)cc3)c2-c2ccnc(NCc3cccc4c3OCO4)n2)CC1 was tested. Which inhibition did it give?
A: Its inhibition is under 50 µM.

Q: How did the inhibition turn out when Fc1ccc(-c2ncn(C3CCNCC3)c2-c2ccnc(Nc3ccccc3)c2)cc1 was run?
A: The inhibition was under 50 µM.

Q: For CC1(C)CC(n2cnc(-c3ccc(F)cc3)c2-c2ccnc(NCCO)n2)CC(C)(C)N1, which inhibition is on record?
A: Its inhibition is under 50 µM.

Q: With CN1CCC(n2cnc(-c3ccc(F)cc3)c2-c2ccnc(Nc3ccccc3)n2)CC1 as the compound, how does the inhibition read?
A: Its inhibition is under 50 µM.

Q: For CN1CCC(n2cnc(-c3ccc(F)cc3)c2-c2ccnc(NC3CCN(Cc4ccccc4)CC3)n2)CC1, which inhibition is on record?
A: Its inhibition is under 50 µM.

Q: With O=C1CCC(n2cnc(-c3ccc(F)cc3)c2-c2ccnc(Nc3ccccc3)n2)CC1 as the compound, how does the inhibition read?
A: Its inhibition is under 50 µM.

Q: For CN1CCC(n2cnc(-c3ccc(F)cc3)c2-c2ccnc(NCCCN3CCOCC3)n2)CC1, which inhibition is on record?
A: Its inhibition is under 50 µM.

Q: For Fc1ccc(-c2ncn(C3CCNCC3)c2-c2ccnc(NCCCn3ccnc3)n2)cc1, which inhibition is on record?
A: The inhibition was under 50 µM.

Q: With CN1CCC(n2cnc(-c3ccc(F)cc3)c2-c2ccnc(NCc3ccccc3)n2)CC1 as the compound, how does the inhibition read?
A: Its inhibition is under 50 µM.

The compounds below were run against MAPK14 (UniProt Q16539) (assay: MAPK14 Kinase Inhibition).

Q: With Fc1ccc(Nc2nccc(-c3c(-c4ccc(F)cc4)ncn3C3CCNCC3)n2)cc1 as the compound, how does the IC50 read?
A: The IC50 was under 50 µM.

Q: Which IC50 does the source give for COc1ccccc1Nc1nccc(-c2c(-c3ccc(F)cc3)ncn2C2CCNCC2)n1 here?
A: The IC50 was under 50 µM.

Q: How did the IC50 turn out when CCOC(=O)N1CCC(n2cnc(-c3ccc(F)cc3)c2-c2ccnc(Nc3ccc(OCc4ccccc4)cc3)n2)CC1 was run?
A: The IC50 was under 50 µM.

Q: Which IC50 does the source give for Fc1ccc(-c2ncn(C3CCNCC3)c2-c2ccnc(Nc3cccc(F)c3)n2)cc1 here?
A: Its IC50 is under 50 µM.

Q: CSc1ccc(-c2ncn(C3CCNCC3)c2-c2ccnc(Nc3ccccc3)n2)cc1 was tested. Which IC50 did it give?
A: Its IC50 is under 50 µM.

Q: C[S+]([O-])c1ccc(-c2ncn(C3CCNCC3)c2-c2ccnc(Nc3ccccc3)n2)cc1 (configuration not stated) was tested. Which IC50 did it give?
A: The IC50 was under 50 µM.

Q: CCOC(=O)N1CCC(n2cnc(-c3ccc(F)cc3)c2-c2ccnc(Nc3cccc(OCc4ccccc4)c3)n2)CC1 was tested. Which IC50 did it give?
A: The IC50 was under 50 µM.

Q: How did the IC50 turn out when COc1cccc(Nc2nccc(-c3c(-c4ccc(F)cc4)ncn3C3CCNCC3)n2)c1 was run?
A: The IC50 was under 50 µM.

Q: Which IC50 does the source give for Oc1ccc(Nc2nccc(-c3c(-c4ccc(F)cc4)ncn3C3CCNCC3)n2)cc1 here?
A: The IC50 was under 50 µM.

Q: Which IC50 does the source give for Fc1ccc(-c2ncn(C3CCNCC3)c2-c2ccnc(Nc3ccccc3F)n2)cc1 here?
A: The IC50 was under 50 µM.

Q: Fc1ccc(-c2ncn(C3CCNCC3)c2-c2ccnc(Nc3ccc(F)c(F)c3)n2)cc1 was tested. Which IC50 did it give?
A: Its IC50 is under 50 µM.

Q: Fc1ccc(-c2ncn(C3CCNCC3)c2-c2ccnc(Nc3cccc(C(F)(F)F)c3)n2)cc1 was tested. Which IC50 did it give?
A: The IC50 was under 50 µM.

Q: With Oc1cccc(Nc2nccc(-c3c(-c4ccc(F)cc4)ncn3C3CCNCC3)n2)c1 as the compound, how does the IC50 read?
A: The IC50 was under 50 µM.

Q: How did the IC50 turn out when COc1ccc(Nc2nccc(-c3c(-c4ccc(F)cc4)ncn3C3CCNCC3)n2)cc1 was run?
A: Its IC50 is under 50 µM.
